Article PMC9860980, “Pharmacokinetics and Pharmacodynamics (PK/PD) of Corallopyronin A against Methicillin-Resistant Staphylococcus aureus” (Pharmaceutics, 2022)
Where two headings read alike, the source gives them in different places.

Tested on: S. aureus strain ATCC 33591 (MRSA-strain)
Method: Organ samples were thawed and homogenized using a Polytron tissue homogenizer after addition of 3 mL isotonic sodium chloride solution. First, a calibration curve was prepared by spiking different concentrations of CorA into the respective matrix from CD-1 mice. Caffeine was used as an internal standard. In addition, quality control samples (QCs) were prepared for CorA for every matrix. For PD samples, calibration curve and QCs were prepared for levofloxacin using the same protocol. The following extraction procedure was used: 50 µL of a sample (calibration sample, QCs, PK or PD sample) was extracted with 20 µL of acetic acid in water (10/90 (v/v)) and 30 µL acetonitrile for 5 min at 800 rpm on an Eppendorf MixMate® vortex mixer. Then, samples were spun down for 20 min at 4 °C and 4000 rpm and supernatants were transferred to new Greiner 96-well V-bottom plates. Samples were analyzed using an Agilent 1290 Infinity II HPLC system (Waldbronn, Germany) coupled to an AB Sciex QTrap6500plus mass spectrometer (Darmstadt, Germany). LC conditions were as follows: column: Agilent Zorbax Exlipse Plus C18, 50 × 2.1 mm, 1.8 µm; temperature: 30 °C; injection volume: 5 µL per sample; flow rate: 800 µL/min. Samples were run under buffered conditions: A: 95% water + 5% acetonitrile + 5 mM ammonium acetate + 40 µL/L acetic acid; B: 95% acetonitrile + 5% water + 5 mM ammonium acetate + 40 µL/L acetic acid. The gradient was as follows: 99% A at 0 min, 99% A until 0.1 min, 99–0% A from 0.1 min to 4.0 min, 0% A until 4.5 min. Mass transitions for controls and compounds are depicted in Table S1. Peaks of PK samples were quantified using the calibration curve. The accuracy of the calibration curve was determined using QCs independently prepared on different days. PK parameters were determined using a non-compartmental analysis with PKSolver.
Inocula were prepared as described previously with the modification that isotonic sodium chloride solution was used instead of PBS [25]. For the neutropenic thigh and the neutropenic lung infection model the S. aureus strain ATCC 33591 (MRSA-strain) was used. For the neutropenic lung infection model an inoculum of 2 × 10^9 cfu/mL was used. For the neutropenic thigh infection model an inoculum of 7 × 10^5 cfu/mL was used.
The model was conducted as described previously. In brief, the following groups were used: (1) inoculum control group with terminal endpoint at 2 h post infection to determine baseline inoculum in vivo; (2) vehicle-treated group receiving 20 mg/kg SC tramadol and vehicle (PEG400/PBS (80:20 (v/v)); (3) levofloxacin group 5 mg/kg IP three times a day (TID) (t = 2, 6 and 10 h post infection); (4) CorA 60 mg/kg IP TID (t = 2, 6 and 10 h post infection) and (5) CorA 100 mg/kg IP BID (t = 2 and 6 h post infection). The endpoint for groups no. 2–5 was 24 h post infection. A solution of […].

SMILES: C/C=C/C/C=C(\C)C(O)CC/C(C)=C/C=C(\C)C(=O)c1c(O)cc([C@H](C)CC/C=C/NC(=O)OC)oc1=O (stereo partly shown) [CorA, Corallopyronin A]
- terminal thigh concentrations lower than in the group at 100 mg/kg IP BID (60 mg/kg IP BID (so in the source) vs 100 mg/kg IP BID, thigh): more than 10 fold
- terminal level in lung tissue (60 mg/kg IP TID): not detected
- bacterial burden in lung tissue (60 mg/kg IP TID, 24 h post infection, secondary seeding, vs vehicle): did not show any effect
- bacterial burden in thigh tissue (60 mg/kg IP TID, 24 h post infection, vs vehicle): did not show any effect
- terminal level in lung tissue (100 mg/kg IP BID): detected at low levels
- terminal liver levels lower than at 60 mg/kg IP TID (100 mg/kg IP BID vs 60 mg/kg IP TID, liver): more than 5 fold
- bacterial burden in thigh (100 mg/kg IP BID, 24 h post infection): significant reduction
